Test systems include U251 CNS; UO-31 renal; TK-10 renal; SK-MEL-5 melanoma; HL-60(TB) leukemia; NCI/ADR-RES ovarian; COLO 205 colon; EKVX NSCLC; RXF 393 renal; CCRF-CEM leukemia.
Common to all, as to test: growth of human tumour cells (NCI), 48 h

The structures appear in SMILES notation. Several values for one entry are separate records, joined by “and”; a condition that tells them apart may be missing. Equal values may be shown once.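 Assay format: 96-well plates, 48-hour exposure. The concentration for 50% growth inhibition is given as GI50. TGI is the concentration that stops growth completely.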

Regarding `COc1nc(C#CCC(C)O)nc(OC)n1` (configuration not stated), the TGI in the experiment on U251 CNS is 76.9 µM; in the experiment on UO-31 renal, 37.8 µM; in the experiment on TK-10 renal it was 57.7 µM; in the experiment with SK-MEL-5 melanoma it was 34.7 µM; in the experiment on HL-60(TB) leukemia, 94.6 µM; in the experiment with NCI/ADR-RES ovarian it was 43.5 µM. Also, the TGI in the experiment with COLO 205 colon worked out at 56.8 µM; in the experiment on EKVX NSCLC, 39.3 µM; in the experiment with RXF 393 renal, 24.2 µM.
Consider `Cc1nn(C(=O)Cc2ccccc2)c2c1C(c1ccc(O)cc1)SC(N)=N2` (configuration not stated), for which the TGI in the experiment with UO-31 renal, with TK-10 renal, with SK-MEL-5 melanoma, with HL-60(TB) leukemia, in the experiment on CCRF-CEM leukemia and in the experiment on COLO 205 colon was > 100 µM each time. Moreover, the TGI with EKVX NSCLC is > 100 µM.
Take `Brc1cccc(Nc2nc(-c3cccs3)nc3ccc(Br)cc23)c1`: the TGI with U251 CNS was > 100 µM; in the experiment with UO-31 renal, > 100 µM; in the experiment on TK-10 renal it was 88 µM; in the experiment with SK-MEL-5 melanoma it was 30.9 µM; in the experiment with HL-60(TB) leukemia, > 100 µM; with CCRF-CEM leukemia, > 100 µM. Besides, the TGI in the experiment with NCI/ADR-RES ovarian is > 100 µM; in the experiment on COLO 205 colon, > 100 µM; in the experiment with EKVX NSCLC, 98.1 µM.
In the case of `CO[C@]12CC(=O)C3(C(C[C@H]4CC5CC=C6C[C@@H](OC(C)=O)CC[C@]6(OC(C)=O)C5C[C@@]43C)C1)C1C[C@H]3[C@@H]4CC=C5C[C@@H](OC(C)=O)CC[C@]5(OC(C)=O)[C@H]4CC[C@]3(C)C12` (some centres not stated), the TGI in the experiment with U251 CNS was > 100 µM; with UO-31 renal, 52.6 µM; with TK-10 renal, > 100 µM; in the experiment with SK-MEL-5 melanoma, 14.7 µM; in the experiment on HL-60(TB) leukemia, > 100 µM; in the experiment with CCRF-CEM leukemia it was > 100 µM. The results for the TGI in the experiment on NCI/ADR-RES ovarian, in the experiment with COLO 205 colon and in the experiment on EKVX NSCLC were 51.3 µM, 12.7 µM and 54.9 µM, respectively.
Take `CC(C)(C)NC(=O)/C(=C\Sc1ccccc1)c1ccc2c(c1)OCO2`: the TGI with U251 CNS was 98.6 µM; in the experiment on UO-31 renal, > 100 µM; with TK-10 renal it was > 100 µM; in the experiment on SK-MEL-5 melanoma, 32.8 µM; with HL-60(TB) leukemia, 41.9 µM; with CCRF-CEM leukemia, > 100 µM. Further, the TGI in the experiment on NCI/ADR-RES ovarian was 97.5 µM; in the experiment with COLO 205 colon, 53.4 µM; in the experiment with EKVX NSCLC, > 100 µM.
Take `O=C1CN2C(c3ccccc3)=NN(c3ccc([N+](=O)[O-])cc3)C2(c2ccccc2)c2cc(Cl)ccc2N1CC1CC1` (configuration not stated): the TGI in the experiment on U251 CNS, with UO-31 renal, with TK-10 renal, in the experiment with SK-MEL-5 melanoma, in the experiment with CCRF-CEM leukemia and in the experiment with NCI/ADR-RES ovarian was > 100 µM throughout. Moreover, the TGI with COLO 205 colon, in the experiment on EKVX NSCLC and with RXF 393 renal was > 100 µM throughout.
For the compound `c1ccc2sc(SCSc3nc4ccccc4s3)nc2c1`, the TGI with U251 CNS, in the experiment on UO-31 renal, in the experiment on TK-10 renal, in the experiment on SK-MEL-5 melanoma, with CCRF-CEM leukemia and with NCI/ADR-RES ovarian was > 100 µM in each case. Also, the TGI in the experiment with EKVX NSCLC and in the experiment with RXF 393 renal was > 100 µM in each case.
With `CC[C@H]1CN2CCc3cc(OC)c(OC)cc3[C@@H]2C[C@@H]1C[C@H]1NCCc2cc(OC)c(OC)cc21`, the TGI was 0.242 µM and 0.978 µM with UO-31 renal; 0.0784 µM and 0.309 µM with TK-10 renal; 0.0701 µM and 0.0855 µM in the experiment with SK-MEL-5 melanoma; 0.0656 µM in the experiment with CCRF-CEM leukemia; 0.502 µM in the experiment with NCI/ADR-RES ovarian; 0.0283 µM and 0.0201 µM in the experiment on COLO 205 colon. The TGI was 0.151 µM and 0.144 µM in the experiment with EKVX NSCLC; 0.0593 µM with RXF 393 renal. In the experiment on CCRF-CEM leukemia, the GI50 was 21.5 nM.
On to `CC12CC(=O)C3C(C(=O)C1)C32C` (configuration not stated), for which the TGI with U251 CNS, in the experiment with UO-31 renal, in the experiment with TK-10 renal, with SK-MEL-5 melanoma, in the experiment with CCRF-CEM leukemia and in the experiment with NCI/ADR-RES ovarian was > 100 µM in each case. The TGI in the experiment on COLO 205 colon, in the experiment with EKVX NSCLC and in the experiment with RXF 393 renal was > 100 µM in each case.
With `O=C(/C=C/c1ccsc1)c1ccsc1`, the TGI is 37.7 µM in the experiment on U251 CNS; 28.7 µM in the experiment on UO-31 renal; 74.4 µM in the experiment on TK-10 renal; 35.1 µM in the experiment on SK-MEL-5 melanoma; 40.6 µM in the experiment with HL-60(TB) leukemia; 45.2 µM in the experiment on CCRF-CEM leukemia. For the same compound, the TGI is > 100 µM in the experiment with NCI/ADR-RES ovarian, 52.8 µM in the experiment on COLO 205 colon and > 100 µM with EKVX NSCLC.
For the compound `O=c1c2ccccc2nc2[nH][nH]c(=S)n12`, the TGI in the experiment on U251 CNS, in the experiment with UO-31 renal, in the experiment on TK-10 renal, in the experiment on SK-MEL-5 melanoma, with HL-60(TB) leukemia and in the experiment on CCRF-CEM leukemia was > 100 µM each time. In addition, the TGI in the experiment with NCI/ADR-RES ovarian, with COLO 205 colon and in the experiment with EKVX NSCLC was > 100 µM each time.
For `BrC/C=C/C[P+](c1ccccc1)(c1ccccc1)c1ccccc1`, the TGI is 87 µM in the experiment with U251 CNS; > 100 µM with UO-31 renal; 42 µM in the experiment on TK-10 renal; 39.8 µM with SK-MEL-5 melanoma; 39.2 µM with HL-60(TB) leukemia; > 100 µM in the experiment on CCRF-CEM leukemia. The TGI with COLO 205 colon worked out at 16.1 µM.
Take `Cc1c2c(n(CCc3ccc(Cl)cc3)c1C)NN=C(C#N)S2(=O)=O`: the TGI with U251 CNS, in the experiment with UO-31 renal, with TK-10 renal, in the experiment on SK-MEL-5 melanoma, with NCI/ADR-RES ovarian and in the experiment with COLO 205 colon was > 100 µM in each case. Besides, the TGI in the experiment on EKVX NSCLC is > 100 µM.
`NNC(=O)c1ccc[n+](CCc2ccccc2)c1`: the TGI with U251 CNS, in the experiment on UO-31 renal, in the experiment with TK-10 renal, in the experiment on SK-MEL-5 melanoma, in the experiment on HL-60(TB) leukemia and in the experiment with NCI/ADR-RES ovarian was > 100 µM throughout. Further, the TGI in the experiment with COLO 205 colon, with EKVX NSCLC and in the experiment with RXF 393 renal was > 100 µM throughout.
On to `Cc1cc2[nH]c3[nH]c(=O)[nH]c(=O)c3c2cc1C`, for which the TGI in the experiment on UO-31 renal, with TK-10 renal, in the experiment on SK-MEL-5 melanoma, with CCRF-CEM leukemia, in the experiment with NCI/ADR-RES ovarian and in the experiment on COLO 205 colon was > 100 µM throughout. Moreover, the TGI in the experiment on EKVX NSCLC and in the experiment on RXF 393 renal was > 100 µM each time.

The values above are taken from PubChem BioAssay (NCI).
